Values of other authors as cited in patent US20250369953A1, “METHODS FOR MEASURING CIRCADIAN RHYTHM FACTORS” (priority 2024, published 2025).

peak plasma concentrations (endogenous, nighttime sleep, occurring at approximately 02:00 am): approximately 70 μg/ml | metabolic clearance (healthy young adult humans): approximately 1 liter per minute | volume of distribution (healthy young adult humans): approximately 40 liters
SMILES: COc1ccc2[nH]cc(CCNC(C)=O)c2c1 [Melatonin, N-acetyl-5-methoxytryptamine]
